Laboratory results taken from ChEMBL document CHEMBL3885881, “DrugMatrix”.

Species on record: Rattus norvegicus
Assay: DrugMatrix - Regimen: Daily Repeat
Format: toxicity, organism-based, Sprague-Dawley
Set-up: regimen Daily Repeat, gender Male, age 6-8 weeks
Conditions: in vivo, po, route oral GAVAGE, vehicle 100 % WATER
[1] = 9 mg/kg, 72 h, tissue Blood, dose level Low, time 3 day
[2] = 9 mg/kg, 72 h, tissue Plasma, dose level Low, time 3 day
[3] = 9 mg/kg, 120 h, tissue Blood, dose level Low, time 5 day
[4] = 9 mg/kg, 120 h, tissue Plasma, dose level Low, time 5 day
[5] = 90 mg/kg, 72 h, tissue Blood, dose level High, time 3 day
[6] = 90 mg/kg, 72 h, tissue Plasma, dose level High, time 3 day
[7] = 90 mg/kg, 120 h, tissue Blood, dose level High, time 5 day
[8] = 90 mg/kg, 120 h, tissue Plasma, dose level High, time 5 day

STANNOUS FLUORIDE
ABSOLUTE BASOPHIL [1]: 0 CELLS/uL | ABSOLUTE EOSINOPHIL [1]: 0 CELLS/uL | ABSOLUTE LYMPHOCYTE [1]: 13273.33 CELLS/uL | ABSOLUTE MONOCYTE [1]: 348.33 CELLS/uL | ABSOLUTE SEGMENTED NEUTROPHIL [1]: 1378.33 CELLS/uL | BASOPHIL [1]: 0% | EOSINOPHIL [1]: 0% | ERYTHROCYTE COUNT [1]: 5.48 x10E6/uL | HEMATOCRIT [1]: 34.9% | HEMOGLOBIN [1]: 13.5 G/DL | LEUKOCYTE COUNT [1]: 15 x10E3/uL | MEAN CORPUSCULAR HEMOGLOBIN [1]: 24.67 pg | MEAN CORPUSCULAR HEMOGLOBIN CONCENTRATION [1]: 38.7 G/DL | NUCLEATED RED BLOOD CELLS [1]: 0 /100WBC | PLATELET COUNT [1]: 1118.33 x10E3/uL | ALANINE AMINOTRANSFERASE [2]: 80.67 u/L | ALKALINE PHOSPHATASE [2]: 343 u/L | ASPARTATE AMINOTRANSFERASE [2]: 104.33 u/L | BLOOD UREA NITROGEN [2]: 17 mg/dL | CARBON DIOXIDE [2]: 21.33 mmol/L | CHOLESTEROL [2]: 77 mg/dL | CREATINE PHOSPHOKINASE [2]: 322.33 u/L | CREATININE [2]: 0.21 mg/dL | GLUCOSE [2]: 188 mg/dL | LACTATE DEHYDROGENASE [2]: 156 u/L | LIPASE [2]: 9.5 u/L | PHOSPHORUS [2]: 11.3 mg/dL | POTASSIUM [2]: 6.63 MEQ/L | SODIUM [2]: 146.2 MEQ/L | TOTAL BILIRUBIN [2]: 0.37 mg/dL | TOTAL PROTEIN [2]: 5.07 G/DL | URIC ACID [2]: 1.73 mg/dL | ABSOLUTE BASOPHIL [3]: 0 CELLS/uL | ABSOLUTE EOSINOPHIL [3]: 174 CELLS/uL | ABSOLUTE LYMPHOCYTE [3]: 11650 CELLS/uL | ABSOLUTE MONOCYTE [3]: 421.33 CELLS/uL | ABSOLUTE SEGMENTED NEUTROPHIL [3]: 1221.33 CELLS/uL | BASOPHIL [3]: 0% | EOSINOPHIL [3]: 1% | ERYTHROCYTE COUNT [3]: 5.66 x10E6/uL | HEMATOCRIT [3]: 35.6% | HEMOGLOBIN [3]: 13.1 G/DL | LEUKOCYTE COUNT [3]: 13.47 x10E3/uL | LYMPHOCYTE [3]: 86.67% | MEAN CORPUSCULAR HEMOGLOBIN [3]: 23.23 pg | MEAN CORPUSCULAR HEMOGLOBIN CONCENTRATION [3]: 36.9 G/DL | MEAN CORPUSCULAR VOLUME [3]: 62.97 fL | MONOCYTE [3]: 3% | NUCLEATED RED BLOOD CELLS [3]: 0 /100WBC | PLATELET COUNT [3]: 1231.67 x10E3/uL | ALANINE AMINOTRANSFERASE [4]: 45 u/L | ALKALINE PHOSPHATASE [4]: 430.67 u/L | ASPARTATE AMINOTRANSFERASE [4]: 96.67 u/L | BLOOD UREA NITROGEN [4]: 22 mg/dL | CARBON DIOXIDE [4]: 24.33 mmol/L | CHLORIDE [4]: 108.67 MEQ/L | CHOLESTEROL [4]: 59 mg/dL | CREATINE PHOSPHOKINASE [4]: 371.67 u/L | CREATININE [4]: 0.2 mg/dL | GLUCOSE [4]: 135.33 mg/dL | LACTATE DEHYDROGENASE [4]: 479 u/L | PHOSPHORUS [4]: 12.03 mg/dL | POTASSIUM [4]: 6.27 MEQ/L | SODIUM [4]: 147.1 MEQ/L | TOTAL BILIRUBIN [4]: 0.17 mg/dL | TOTAL PROTEIN [4]: 6.13 G/DL | ABSOLUTE BASOPHIL [5]: 0 CELLS/uL | ABSOLUTE EOSINOPHIL [5]: 58 CELLS/uL | ABSOLUTE LYMPHOCYTE [5]: 13530 CELLS/uL | ABSOLUTE MONOCYTE [5]: 390.67 CELLS/uL | ABSOLUTE SEGMENTED NEUTROPHIL [5]: 1821.33 CELLS/uL | BASOPHIL [5]: 0% | EOSINOPHIL [5]: 0.33% | ERYTHROCYTE COUNT [5]: 5.56 x10E6/uL | HEMATOCRIT [5]: 34% | LEUKOCYTE COUNT [5]: 15.8 x10E3/uL | LYMPHOCYTE [5]: 85.67% | MEAN CORPUSCULAR HEMOGLOBIN [5]: 23.23 pg | MEAN CORPUSCULAR HEMOGLOBIN CONCENTRATION [5]: 38 G/DL | NEUTROPHIL [5]: 11.67% | NUCLEATED RED BLOOD CELLS [5]: 0 /100WBC | PLATELET COUNT [5]: 1397.33 x10E3/uL | ALANINE AMINOTRANSFERASE [6]: 42 u/L | ALKALINE PHOSPHATASE [6]: 299.67 u/L | ASPARTATE AMINOTRANSFERASE [6]: 76.33 u/L | CARBON DIOXIDE [6]: 25 mmol/L | CHOLESTEROL [6]: 62.33 mg/dL | CREATINE PHOSPHOKINASE [6]: 334 u/L | CREATININE [6]: 0.15 mg/dL | LACTATE DEHYDROGENASE [6]: 108 u/L | PHOSPHORUS [6]: 13.3 mg/dL | POTASSIUM [6]: 6 MEQ/L | TOTAL BILIRUBIN [6]: 0.23 mg/dL | TOTAL PROTEIN [6]: 5.67 G/DL | ABSOLUTE BASOPHIL [7]: 0 CELLS/uL | ABSOLUTE EOSINOPHIL [7]: 49.67 CELLS/uL | ABSOLUTE MONOCYTE [7]: 426 CELLS/uL | ABSOLUTE SEGMENTED NEUTROPHIL [7]: 994 CELLS/uL | BASOPHIL [7]: 0% | EOSINOPHIL [7]: 0.33% | ERYTHROCYTE COUNT [7]: 5.79 x10E6/uL | HEMATOCRIT [7]: 36.83% | HEMOGLOBIN [7]: 13.8 G/DL | LEUKOCYTE COUNT [7]: 14.2 x10E3/uL | MEAN CORPUSCULAR HEMOGLOBIN [7]: 23.9 pg | MEAN CORPUSCULAR HEMOGLOBIN CONCENTRATION [7]: 37.5 G/DL | MONOCYTE [7]: 3% | NEUTROPHIL [7]: 7% | NUCLEATED RED BLOOD CELLS [7]: 0 /100WBC | PLATELET COUNT [7]: 1414 x10E3/uL | ALANINE AMINOTRANSFERASE [8]: 41.33 u/L | ALKALINE PHOSPHATASE [8]: 357 u/L | ASPARTATE AMINOTRANSFERASE [8]: 86.33 u/L | CARBON DIOXIDE [8]: 24.33 mmol/L | CREATINE PHOSPHOKINASE [8]: 353.67 u/L | CREATININE [8]: 0.22 mg/dL | GLUCOSE [8]: 190.67 mg/dL | LACTATE DEHYDROGENASE [8]: 202.33 u/L | PHOSPHORUS [8]: 14.33 mg/dL | POTASSIUM [8]: 6.7 MEQ/L | SODIUM [8]: 150 MEQ/L | TOTAL BILIRUBIN [8]: 0.2 mg/dL | TOTAL PROTEIN [8]: 5.87 G/DL | URIC ACID [8]: 2.3 mg/dL
